Experiments:
GLUT1 = biological target: T1, GLUT1 (Homo sapiens, UniProt P11166); experiment: glycolysis assay in DLD1 WT cells (rely on GLUT1); type: cell-based; conditions: DLD1-WT cells; 10 μM oligomycin, one hour
T1 construct: endogenous in cells; host or cells: DLD1 WT cancer cells
T1 sequence (P11166 1-492): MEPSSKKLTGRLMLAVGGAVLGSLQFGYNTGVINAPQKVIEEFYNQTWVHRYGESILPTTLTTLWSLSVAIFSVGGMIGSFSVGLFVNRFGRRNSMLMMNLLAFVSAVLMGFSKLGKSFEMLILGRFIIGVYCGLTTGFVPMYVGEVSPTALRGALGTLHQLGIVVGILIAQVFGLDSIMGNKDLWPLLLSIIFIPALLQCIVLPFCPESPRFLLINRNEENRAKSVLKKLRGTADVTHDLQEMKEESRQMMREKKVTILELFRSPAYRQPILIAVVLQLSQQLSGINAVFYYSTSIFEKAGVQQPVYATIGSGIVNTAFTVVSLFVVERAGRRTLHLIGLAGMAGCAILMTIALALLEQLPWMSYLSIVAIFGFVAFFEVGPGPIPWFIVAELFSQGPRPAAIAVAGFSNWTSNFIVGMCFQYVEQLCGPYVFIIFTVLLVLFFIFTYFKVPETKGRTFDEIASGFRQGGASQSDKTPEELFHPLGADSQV
In short: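 Cells […] exposed for 1 h to inhibitor plus 10 μM oligomycin to block mitochondrial ATP; remaining glycolytic ATP read by CellTiter-Glo luminescence. IC50 derived from dose-response curves.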

[1] = tested on: TNFalpha and MCP-1 levels; experiment: LPS/D-galactosamine mouse model, cytokine production; type: in vivo; conditions: 100 mg/kg p.o.
Procedure: 100 μg LPS and 18 mg D-galactosamine were used to induce cytokine production. […] In FIG. 6, Example 2 is shown to modulate cytokine/chemokine production in response to LPS/D-galactosamine (mouse model of sepsis and liver damage). Example 2 prevents the dramatic increase of TNFalpha (FIG. 6A), a cytokine well-established as a major driver of inflammation. In line with in vitro results, Example 2 abrogates an initial increase in MCP-1 (FIG. 6B), but is unable to statistically suppress MCP1 induction at later time points (not shown). LPS Mouse Model: Performed at Pharmalegacy.

[2] = tested on: phosphorylation of STAT1 and STAT3; experiment: Western blot of STAT1/STAT3 phosphorylation in activated CD4 T cells; type: cell-based, human; conditions: 1 μM; CD4 T cells activated 48 hrs with IL-1β, TGF-β
Procedure: FIG. 8. […] FIG. 8A. CD4 T cells were activated for 48 hrs in the presence of IL-1β, TGF-β and 1 μM of the Example 2 compound. Western blotting analysis was used to determine the activation status of Stat3, Stat1 and pS6K (as a marker of mTORC1 activity) and the expression of GLUT1 protein. FIG. 8B. CD4 T cells were activated for 48 hrs and treated with the indicated compounds for 1.5 or 4 hrs. Western blotting analysis was used to determine the activation status of Stat3, Stat1 and pS6K (as a marker of mTORC1 activity). GLUT1/3 inhibitors downregulate phosphorylation of STAT1 and STAT3, key signaling molecules in activated T cells. In FIG. 8A. CD4 T cells were activated for 48 hrs in the presence of IL-1β, TGF-β and 1 μM of the Example 2 compound. Western blotting analysis was used to determine the activation status of Stat3, Stat1 and pS6K (as a marker of mTORC1 activity) and the expression of GLUT1 protein. CD4 T cells were activated for 48 hrs and treated with the indicated compounds in FIG. 8B for 1.5 or 4 hrs. […] IL-17 levels were measured by ELISA (R&D systems, Human IL-17 Quantikine ELISA kit). Proliferation was measured by Cell Titer Glo (Promega). Intracellular staining was performed and analyzed using the Guava EasyCyte flow cytometer. […] Protein levels and phosphorylation status were assessed by western blot analysis using antibodies purchased from Cell Signaling.

[3] = tested on: MOG-induced experimental autoimmune encephalitis; experiment: mouse MOG-induced experimental autoimmune encephalitis (EAE) model; type: in vivo; conditions: compared to vehicle control
Excerpt: In FIG. 4, Example 2 is shown to have efficacy against an in vivo mouse model of inflammation, MOG-induced experimental autoimmune encephalitis. Example 2 both delays the onset and lowers the end clinical score of inflammation in this model.
Mouse Prophylactic MOG-EAE Model: Performed at Hooke laboratories.

Compound: CCOc1ccc2nc(-c3cccc(OCC(=O)NC(C)C)c3)nc(Nc3ccc(-c4cn[nH]c4)cc3)c2c1 [Ex. 2, 2-(3-(4-((4-(1H-pyrazol-4-yl)phenyl)amino)-6-ethoxyquinazolin-2-yl)phenoxy)-N-isopropylacetamide]
- IC50 (GLUT1): 115 nM
- increase of MCP-1 levels ([1]; 2 hours post LPS/Galn): unable to prevent a statistically significant increase
- increase of MCP-1 ([1]; one hour following LPS/Galn): inhibits the increase
- increase of TNFalpha ([1]; one hour following LPS/Galn): inhibits the increase
- phosphorylation of STAT1 and STAT3 [2]: downregulate the phosphorylation of STAT1 and STAT3
- end clinical score ([3]; 30 mg/kg p.o. daily): lowered the end clinical score
- onset of EAE ([3]; 30 mg/kg p.o. daily): delayed onset
- end clinical score ([3]; 100 mg/kg p.o. daily): lowered the end clinical score
- onset of EAE ([3]; 100 mg/kg p.o. daily): delayed onset

Source: patent US11071735B2, “Treatment of inflammatory conditions and autoimmune diseases with glucose uptake inhibitors” (Kadmon Corporation, LLC, priority 2017, dated 2021)
